In ChEMBL document CHEMBL1938253, “Design and synthesis of novel macrocyclic 2-amino-6-arylpyrimidine Hsp90 inhibitors” (Bioorg Med Chem Lett, 2012):
Converted amounts (≈) assume the structure as drawn.

Tests used:
[1] = in vitro; settings: human, liver microsomes
[2] = in vitro; settings: mouse, liver microsomes
[3] = physchem; settings: fasted state simulated intestinal fluid
[4] = target: Heat shock protein HSP 90-alpha (Homo sapiens, UniProt P07900)
Description: Binding affinity to N-terminus biotinylated human Hsp90 alpha by surface plasmon resonance assay

[5] = Half life in athymic nu/nu mouse at 10 mg/kg, iv; type: ADME, organism-based; parameters: dose 10 mg/kg, route intravenous; settings: in vivo
[6] = Tmax in athymic nu/nu mouse at 200 mg/kg, po; type: ADME, organism-based; parameters: dose 200 mg/kg, route oral; settings: in vivo

Row | microsomal CLint at 1 h, 5 µM [1] | microsomal CLint at 1 h, 5 µM [2] | solubility [3] | Kd [4] | half-life [5] | Tmax [6] | Structure (SMILES)
1 | 1.7 µL/min/mg | 1.8 µL/min/mg | 169 µM (≈ 69.9 µg/mL) | – | – | – | Cc1cc(C)c2cc1C(=O)NCCCCCNC(=O)CCSc1cc-2nc(N)n1
2 | 1 µL/min/mg | 15 µL/min/mg | 117 µM (≈ 45.1 µg/mL) | 0.65 nM | – | – | Cc1cc(C)c2cc1C(=O)NCCCC(=O)NCCSc1cc-2nc(N)n1
3 | 5.1 µL/min/mg | 3.5 µL/min/mg | 553 µM (≈ 221 µg/mL) | – | – | – | Cc1cc(C)c2cc1C(=O)NCCCCNC(=O)CCSc1cc-2nc(N)n1
4 | 9.3 µL/min/mg | 21 µL/min/mg | 111 µM (≈ 43 µg/mL) | 0.8 nM | – | – | Cc1cc(C)c2cc1C(=O)NCCNC(=O)OCCSc1cc-2nc(N)n1
5 | – | – | < 7 µM | 11 nM | – | – | Nc1nc2cc(n1)-c1cc(c(Cl)cc1Cl)OCCCCOc1cccc(c1)S2
6 | – | – | 39 µM (≈ 16.9 µg/mL) | – | – | – | Cc1cc(C)c2cc1C(=O)NCCCCCOc1cccc(c1)Sc1cc-2nc(N)n1
7 | – | – | 69 µM (≈ 29 µg/mL) | – | – | – | Cc1cc(C)c2cc1C(=O)NCCCCOc1cccc(c1)Sc1cc-2nc(N)n1
8 | 3.5 µL/min/mg | 7.3 µL/min/mg | 911 µM (≈ 353 µg/mL) | 0.7 nM | – | – | Cc1cc(C)c2cc1C(=O)NCCOC(=O)NCCSc1cc-2nc(N)n1
9 | – | – | 260 µM (≈ 110 µg/mL) | 5.8 nM | – | – | COc1cc(C)c2cc1C(=O)NCCCOc1cccc(c1)Sc1cc-2nc(N)n1
10 | 5.4 µL/min/mg | 3.6 µL/min/mg | 106 µM (≈ 40.9 µg/mL) | 0.61 nM | – | – | Cc1cc(C)c2cc1C(=O)NCCNC(=O)CCCSc1cc-2nc(N)n1
11 | 43 µL/min/mg | 60 µL/min/mg | 29 µM (≈ 10 µg/mL) | 3.4 nM | 15 min | 30 min | CSc1nc(N)nc(-c2ccc3c4c(cc(Cl)cc24)COC3)n1
12 | – | – | 186 µM (≈ 81.2 µg/mL) | 10 nM | – | – | CCOc1cc(C)c2cc1C(=O)NCCCOc1cccc(c1)Sc1cc-2nc(N)n1
13 | – | – | – | 120 nM | – | – | Cc1ccc2cc1-c1cc(nc(N)n1)Sc1cccc(c1)OCCCO2
